Results: paper PMC4019751 (Bioorganic & medicinal chemistry letters, 2014)

Assays:
[1] = molecular target: T1, recombinant purified human sEH (Homo sapiens, UniProt P34913); experiment: sEH inhibition, kinetic fluorescent assay with CMNPC substrate; format: biochemical
T1 sequence (P34913 1-555): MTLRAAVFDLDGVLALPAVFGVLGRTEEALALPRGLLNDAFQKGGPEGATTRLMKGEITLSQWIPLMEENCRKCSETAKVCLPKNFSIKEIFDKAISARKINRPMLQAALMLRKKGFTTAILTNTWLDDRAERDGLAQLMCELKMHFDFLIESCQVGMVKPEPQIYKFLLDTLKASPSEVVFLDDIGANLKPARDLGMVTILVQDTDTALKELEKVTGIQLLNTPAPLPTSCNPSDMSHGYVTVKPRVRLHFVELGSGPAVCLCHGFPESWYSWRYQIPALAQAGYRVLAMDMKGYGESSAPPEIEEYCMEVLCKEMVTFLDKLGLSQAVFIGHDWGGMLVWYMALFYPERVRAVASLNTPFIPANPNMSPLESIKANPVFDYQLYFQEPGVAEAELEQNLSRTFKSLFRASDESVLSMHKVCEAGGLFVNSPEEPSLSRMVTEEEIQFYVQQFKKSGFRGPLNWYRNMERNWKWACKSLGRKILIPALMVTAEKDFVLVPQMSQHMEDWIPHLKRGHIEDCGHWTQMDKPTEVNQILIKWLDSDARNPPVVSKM

human sEH = molecular target: T2, human sEH (Homo sapiens, UniProt P34913); experiment: FRET competitive displacement assay; format: binding; settings: for residence time: read-out: t1/2 (residence time on the enzyme)
T2 sequence (P34913 1-555): T1 sequence (P34913 1-555)

inhibition potency in words [1]	koff (human sEH)	residence time (human sEH)	SMILES
poor potency	–	–	O=C(NCC12CC3CC(CC(C3)C1)C2)Nc1ccc(NC(=O)NCC23CC4CC(CC(C4)C2)C3)cc1 [1e]
poor potency	–	–	O=C(NCC1CCN(C(=O)NCC23CC4CC(CC(C4)C2)C3)CC1)NCC12CC3CC(CC(C3)C1)C2 [1f]
–	0.00461 s⁻¹	2.5 min	O=C(NCCCCCCCCNC(=O)NC1C2CC3CC(C2)CC1C3)NC1C2CC3CC(C2)CC1C3 (centres unmarked) [3d]
–	0.00116 s⁻¹	10 min	O=C(NCCCCCCNC(=O)NCC12CC3CC(CC(C3)C1)C2)NCC12CC3CC(CC(C3)C1)C2 [1c]
–	0.00142 s⁻¹	8 min	CC(NC(=O)NCCCCNC(=O)NC(C)C12CC3CC(CC(C3)C1)C2)C12CC3CC(CC(C3)C1)C2 (centres unmarked) [2b]
